In ChEMBL document CHEMBL3351343, “Synthesis and biological evaluation of novel sigma-1 receptor antagonists based on pyrimidine scaffold as agents for treating neuropathic pain” (J Med Chem, 2014):

Tests used:
[1] = biological target: Sigma non-opioid intracellular receptor 1 (Cavia porcellus, UniProt Q60492); experiment: Displacement of [3H]-(+)-pentazocine from sigma-1 receptor in Dunkin Hartley guinea pig brain membranes after 180 mins by liquid scintillation counting analysis; set-up: species or system Membrane
Sigma non-opioid intracellular receptor 1, sequence (Q60492 whole entry): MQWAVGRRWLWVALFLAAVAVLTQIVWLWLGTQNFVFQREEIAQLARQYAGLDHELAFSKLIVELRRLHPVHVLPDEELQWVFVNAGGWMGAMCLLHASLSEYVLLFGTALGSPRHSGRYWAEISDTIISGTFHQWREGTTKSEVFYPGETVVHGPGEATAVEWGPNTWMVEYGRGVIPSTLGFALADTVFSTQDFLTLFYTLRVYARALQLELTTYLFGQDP

[2] = Displacement of [3H]-DTG from sigma-2 receptor in Dunkin Hartley guinea pig brain membrane after 120 mins by liquid scintillation counting analysis in presence of (+)-SKF10047; set-up: species or system Cavia porcellus
Cavia porcellus = organism: Cavia porcellus; experiment: Selectivity ratio of Ki for Dunkin Hartley guinea pig brain sigma-2 receptor to Ki for Dunkin Hartley guinea pig brain sigma-1 receptor
[3] = Acute toxicity in po dosed Kun Ming mouse after 24 hrs; format: organism-based; details: in vivo

SMILES	Ki [1]	Ki [2]	Ratio Ki (Cavia porcellus)	LD50 at 24 h [3]
Cc1cc(OCCCN2CCN(C(=O)OC(C)(C)C)CC2)nc(-c2ccccc2)n1	> 2000 nM	> 2000 nM		
Cc1ncnc(OCCCN2CCCCC2)c1Cl	187 nM	1100 nM	5.9	
Cc1cc(OCCCN2C(C)(C)CCCC2(C)C)nc(-c2ccccc2)n1	377 nM	> 2000 nM		
Cc1nc(-c2ccccc2)nc(OCCCN2CCCCC2)c1Cl	2.33 nM	1650 nM		440 mg/kg
CC(C)c1cc(OCCCN2CCCC2)nc(-c2ccccc2)n1	218 nM	1090 nM	5	
CCN1CCN(CCCOc2cc(C)nc(-c3ccccc3)n2)CC1	30.6 nM	1180 nM	38.5	
Cc1nc(C)c(Cl)c(OCCCN2CCCCC2)n1	58.8 nM	1080 nM	18.4	
Cc1nc(-c2ccc(F)cc2)nc(OCCCN2CCCCC2)c1Cl	1.14 nM	1330 nM		884 mg/kg
Cc1cc(OC/C=C/CN2CCOCC2)nc(-c2ccccc2)n1	116 nM	1450 nM	12.5	
CCCN(CCC)CCCOc1cc(C)nc(-c2ccccc2)n1	38.8 nM	1070 nM	27.5	
CCCc1cc(OCCCN2CCCCC2)nc(-c2ccccc2)n1	34.9 nM	1460 nM	41.7	
Cc1nc(-c2ccccc2)nc(OCCCN2CCCC2)c1C	11.4 nM	1280 nM	112	
Cc1cc(OCCCN2CCC(C)CC2)nc(-c2ccccc2)n1	16.7 nM	1420 nM	84.7	
Cc1cc(OCCCCCN2CCOCC2)nc(-c2ccccc2)n1	389 nM	> 2000 nM		
c1ccc(-c2nc(OCCCN3CCCCC3)cc(C3CC3)n2)cc1	253 nM	> 2000 nM		
Cc1cc(OCC(O)CN2CCOCC2)nc(-c2ccccc2)n1 (stereo not given)	486 nM	1640 nM	3.4	
Cc1cc(OCCCN2CCCC2)nc(-c2ccccc2)n1	13.6 nM	1250 nM	92.1	
CC(C)c1cc(OCCCN2CCCCC2)nc(-c2ccccc2)n1	188 nM	1840 nM	9.7	
Cc1cc(OCCN2CCOCC2)nc(-c2ccccc2)n1	> 2000 nM	> 2000 nM		
Cc1nc(-c2ccccc2)nc(OCCCN2CCCCC2)c1F	3.75 nM	1360 nM	363	
Cc1nc(-c2ccc3ccccc3c2)nc(OCCCN2CCCCC2)c1Cl	102 nM	> 2000 nM		
Cc1cc(OCCCCCCN2CCOCC2)nc(-c2ccccc2)n1	> 2000 nM	> 2000 nM		
c1ccc(-c2cc(OCCCN3CCCC3)nc(-c3ccccc3)n2)cc1	735 nM	> 2000 nM		
CCCc1cc(OCCCN2CCCC2)nc(-c2ccccc2)n1	38.9 nM	1400 nM	35.8	
COc1cc(OCCCN2CCCCC2)nc(-c2ccccc2)n1	19.3 nM	892 nM	46.2	
c1ccc(-c2cc(OCCCN3CCCCC3)nc(-c3ccccc3)n2)cc1	966 nM	> 2000 nM		
COc1cc(OCCCN2CCCC2)nc(-c2ccccc2)n1	19.3 nM	892 nM	46.2	
Cc1cc(OCCCN2CCC(O)CC2)nc(-c2ccccc2)n1	462 nM	1760 nM	3.8	
